Laboratory results from patent publication US20250171459A1, “2-METHYL-4',5'-DIHYDROSPIRO[PIPERIDINE-4,7'-THIENO[2,3-C]PYRAN] DERIVATIVES AS INHIBITORS OF APOL1 AND METHODS OF USING SAME” (Vertex Pharmaceuticals Incorporated, priority 2022, published 2025).

Target: T1, APOL1 (Homo sapiens, UniProt O14791)
T1 sequence (O14791 1-398 S342G/I384M): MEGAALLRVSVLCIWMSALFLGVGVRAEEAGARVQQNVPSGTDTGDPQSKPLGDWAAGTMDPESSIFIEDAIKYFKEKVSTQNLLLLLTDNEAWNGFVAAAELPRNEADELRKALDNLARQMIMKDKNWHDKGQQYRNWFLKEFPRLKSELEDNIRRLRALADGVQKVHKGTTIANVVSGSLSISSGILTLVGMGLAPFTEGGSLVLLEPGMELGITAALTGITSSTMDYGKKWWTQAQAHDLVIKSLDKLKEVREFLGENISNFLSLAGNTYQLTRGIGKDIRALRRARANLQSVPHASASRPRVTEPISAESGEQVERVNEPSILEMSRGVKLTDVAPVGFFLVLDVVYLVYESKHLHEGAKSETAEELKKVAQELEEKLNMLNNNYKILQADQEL
Assay: MultiTox-Fluor Multiplex Cytotoxicity Assay in tet-inducible APOL1 T-REx-HEK293 cells (cell rescue, ratio of dead to live cells)
Assay type: cell-based
Conditions: tet-inducible transgenic APOL1 T-REx-HEK293 cell lines, 50 ng/mL tet, 24 hours; read-out: IP50 (i.e., IC50 for cell proliferation)
In short: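 T-REx-HEK293 cells with tet-inducible APOL1 were treated with compound (10 μM top, 10-point 3-fold dilution, duplicate) plus 50 ng/mL tetracycline for 24 h at 37° C, in DMEM with 2% tet-free FBS. MultiTox-Fluor protease signals gave a dead/live ratio, normalized to no tet (100% viability) and tet alone (0%).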

| SMILES | IC50 |
| --- | --- |
| C[C@H]1C[C@@]2(CCN1Cc1cnn(CC(C)(O)C(N)=O)c1)OCCc1c2sc(C(F)(F)F)c1CO (stereo partly drawn) [Compound 989, 2-Hydroxy-3-[4-[[(2′S, 7R)-3-(hydroxymethyl)-2′-methyl-2-(trifluoromethyl)spiro[4,5-dihydrothieno[2,3-c]pyran-7,4′-piperidine]-1′-yl]methyl]pyrazol-1-yl]-2-methyl-propanamide] | < 100 nM |
| C[C@H]1C[C@@]2(CCN1Cc1cnn(CC(=O)N(C)C)c1)OCCc1cc(Cl)sc12 [Compound 700] | < 100 nM |
| C[C@H]1C[C@@]2(CCN1CC(N)=O)OCCc1cc(CC(F)F)sc12 [Compound 622] | 500 to 1000 nM |
| CCc1cc2c(s1)CCO[C@@]21CCN(C[C@H]2C[C@@H](NC(=O)CC3CCC(F)(F)CC3)C2)[C@@H](C)C1 [Compound 314] | < 100 nM |
| CCc1cc2c(s1)CCO[C@@]21CCN(Cc2cn([C@H]3C[C@@H](OC)C3)nn2)[C@@H](C)C1 [Compound 145] | < 100 nM |
| CCc1cc2c(s1)CCO[C@@]21CCN(C[C@H]2C[C@@H](NS(=O)(=O)c3cnccc3Cl)C2)[C@@H](C)C1 [Compound 412] | < 100 nM |
| C[C@H]1C[C@@]2(CCN1CC1CCOCC1)OC[C@H](O)c1cc(Cl)sc12 [Compound 789] | 500 to 1000 nM |
| CC(C)Cn1cc(CN2CC[C@]3(C[C@@H]2C)OCCc2cc(Cl)sc23)cn1 [Compound 704] | 100 to 500 nM |
| CCc1cc2c(s1)CCOC21CCN(Cc2cn(CC(O)CF)nn2)C(C)C1 (centres unmarked) [Compound 88] | < 100 nM |
| C[C@H]1C[C@@]2(CCN1Cc1cnn(C3CN(S(C)(=O)=O)C3)c1)OC[C@@H](O)c1cc(C(F)(F)F)sc12 [Compound 884] | < 100 nM |
| CCc1cc2c(s1)CCO[C@@]21CCN(Cc2cn(CC(C)(C)C3(O)CCOCC3)nn2)[C@@H](C)C1 [Compound 111] | 100 to 500 nM |
| CCc1cc2c(s1)CCOC21CCN(Cc2ccc(C(=O)NCCO)nc2)CC1 [Compound 1056] | 100 to 500 nM |
| CCc1cc2c(s1)CCO[C@@]21CCN(Cc2cnc(Cl)nc2)[C@@H](C)C1 [Compound 198, (2′S,4R)-1′-[(2-chloropyrimidin-5-yl)methyl]-2-ethyl-2′-methyl-spiro[6,7-dihydrothieno[3,2-c]pyran-4,4′-piperidine]] | 100 to 500 nM |
| C[C@H]1C[C@@]2(CCN1Cc1cnn(CCC(N)=O)c1)OCCc1c2sc(C(F)(F)F)c1CO [Compound 896, 3-[4-[[(2′S, 7R)-3-(hydroxymethyl)-2′-methyl-2-(trifluoromethyl)spiro[4,5-dihydrothieno[2,3-c]pyran-7,4′-piperidine]-1′-yl]methyl]pyrazol-1-yl]propanamide] | < 100 nM |
| Cc1nccn1-c1ccc(CN2CC[C@]3(C[C@@H]2C)OCCc2cc(Cl)sc23)cc1 [Compound 671] | < 100 nM |
| CNC(=O)c1cccc(CN2CC[C@]3(C[C@@H]2C)OCCc2c3sc(Cl)c2CO)c1 [Compound 730] | 100 to 500 nM |
| CCc1cc2c(s1)CCOC21CCN(Cc2ccc(C(=O)N[C@H](CC)CO)nc2)CC1 [Compound 1053] | < 100 nM |
| CCc1cc2c(s1)CCO[C@@]21CCN(Cc2cn(CCOCCO)nn2)[C@@H](C)C1 [Compound 178] | 100 to 500 nM |
| CCc1cc2c(s1)CCO[C@@]21CCN(C[C@H]2C[C@@H](NC(=O)Oc3ccc(F)cc3)C2)[C@@H](C)C1 [Compound 377] | < 100 nM |
| CCc1cc2c(s1)CCO[C@@]21CCN(Cc2cn(CC(O)(CO)CO)nn2)[C@@H](C)C1 [Compound 89] | < 100 nM |
| CCc1cc2c(s1)CCO[C@@]21CCN(Cc2cn(C3CN(S(=O)(=O)C4CC4)C3)nn2)[C@@H](C)C1 [Compound 5] | < 100 nM |
| C[C@H]1C[C@@]2(CCN1Cc1cn(CCS(C)(=O)=O)nn1)OCCc1c2sc(C(F)(F)F)c1CO [Compound 871, [(2′S, 7R)-2′-methyl-1′-[[1-(2-methylsulfonylethyl)triazol-4-yl]methyl]-2-(trifluoromethyl)spiro[4,5-dihydrothieno[2,3-c]pyran-7,4′-piperidine]-3-yl]methanol] | < 100 nM |
| CCc1cc2c(s1)CCO[C@]21CCN(Cc2cnn(C)c2)[C@H](C)C1 [Compound 270] | 100 to 500 nM |
